The melting point is the temperature, or range, at which the solid turns liquid.

The results in this text go back to publication PMC9458111, “New 1,2,3-Triazole-Coumarin-Glycoside Hybrids and Their 1,2,4-Triazolyl Thioglycoside Analogs Targeting Mitochondria Apoptotic Pathway: Synthesis, Anticancer Activity and Docking Simulation” (Molecules, 2022).

Series [1] relates to human osteosarcoma (HOS cell lines). The experiment in a line: MTT cytotoxicity assay, HOS. The format is cell-based. The conditions noted are these: 48 h. On the procedure:
(§1) The synthesized compounds were studied for their cytotoxic activity against several human cancer cell lines, namely human osteosarcoma (HOS cell lines), human breast adenocarcinoma (MDA-MB-231 cell lines), human breast cancer (MCF-7 cell lines), human colorectal adenocarcinoma (Caco-2 cell lines) and human colon cell line (HCT-116 cell lines) using MTT assay at 100 µM, and the results were outlined as shown in Table 1.
(§2) Human osteosarcoma (HOS cell line), human breast adenocarcinoma (MDA-MB-231cell lines), human breast cancer (MCF-7 cell lines), human colorectal adenocarcinoma (Caco2 cell lines), human colon cell line (HCT-116 cell lines), normal human cell lines (BJ-1), and “a telomerase immortalized normal foreskin fibroblast cell line” were obtained from Karolinska Center, Department of Oncology and Pathology, Karolinska Institute and Hospital, Stockholm, Sweden.
(§3) Following culturing for 10 days, the cells were seeded at concentration of 10 × 10^3 cells per well in case of MCF-7 & MDA, 20 × 10^3 cells/well in a fresh complete growth medium in case of HCT-116, Caco2, & HOS and 40 × 10^3 cells/well in case of BJ-1 at 37 °C for 24 h in a water jacketed carbon dioxide incubator. After 48 h’ incubation, the medium was aspirated, and then 40 μl MTT salt (2.5 mg/mL) were added for a further 4 h; 200 μl 10% sodium dodecyl sulphate (SDS) in deionized water were added to each well and incubated overnight at 37 °C. The absorbance was measured at 595 nm with reference 690 nm. Doxorubicin was used as positive control, and 0.5% DMSO was used as negative control. IC50 values were calculated, using a probit analysis, and by utilizing the SPSS computer program (SPSS for Windows, statistical analysis software package/version 9/1989 SPSS Inc., Chicago, IL, USA).
In general terms: Tetrazolium dyes change colour on reduction, which living cells bring about.

Series [2] relates to human breast adenocarcinoma (MDA-MB-231 cell lines). The series is described as follows: MTT cytotoxicity assay, MDA-MB-231. The settings on record: MDA-MB-231, 48 h. The format is cell-based. On the procedure: as §1, §2, §3
For series [3], the system named is human breast cancer (MCF-7 cell lines). The series is described as follows: MTT cytotoxicity assay, MCF-7. It is filed as cell-based. On the procedure:
as §1, §2, §3

Series [4] has as its system human colorectal adenocarcinoma (Caco-2 cell lines). The series is described as follows: MTT cytotoxicity assay, Caco-2. The conditions noted are these: Caco-2, 48 h. The format is cell-based. On the procedure: as §1, §2, §3
Series [5] concerns human colon cell line (HCT-116 cell lines). The experiment in a line: MTT cytotoxicity assay, HCT-116. The format is cell-based. The settings on record: HCT-116, 48 h. On the procedure:
as §1, §2, §3

For another series, the target named is CDK-2/cyclin A2 (Homo sapiens, UniProt P24941). The series is described as follows: CDK-2/cyclin A2 inhibitory assay (ELISA). The format is biochemical. The settings on record: mean of three values; read-out: IC50 (Mean ± SEM), CDK-2/Cyclin A2. On the procedure:
Assay of CDK-2/cyclin A2 was achieved through ELISA using an affinity tag labeled capture antibody. […] After the incubation period, the unrestrained substance has been discarded, and the wells have been washed. The added TMB (3,3′,5,5′-tetramethylbenzidine) substrate was prompted by Horseradish peroxidase (HRP), and blue coloration appeared. This reaction was stopped through the addition of stop solution to complete changing in colour from blue to yellow. The created signals were equivalent to the quantity of bound analyte, and the Robonik P2000 ELISA reader was used to record the intensity at a certain wavelength (450 nm).
(ELISA stands for enzyme-linked immunosorbent assay.)

The subject of series [6] is cytochrome c in MCF-7 cells. The series is described as follows: Cytochrome c release in MCF-7 cells (ELISA). The conditions noted are these: MCF-7, 19.6 µM (IC50), 24 h; untreated 0.176. The format is cell-based, human. On the procedure: Referring to the cytotoxicity results, the 1,2,4-triazole-thioglycoside derivative 10 has a mitochondria-apoptotic effect on breast cancer cells through reduction of MTT by a mitochondrial enzyme. […] Along with that, such derivative elevated the release of cytochrome c into the cytosol in the treated MCF-7, in comparison with untreated one from 0.176 to 0.766 ng/ml due to disturbing mitochondrial outer membrane permeability (MOMP). In addition, the target 10 achieved better results than those afforded by from the standard 5-fluorouracil. Moreover, the level of caspase-7 was elevated in treated cells with the target 10 rather than that with 5-fluorouracil or the untreated cells as shown in Figure 4.
Cytochrome c specific antibodies have been precoated onto 96-well plates. Cytochrome c were analyzed by enzyme-linked immunosorbent assays (ELISAs) using commercial kits (ab119521; Abcam, Cambridge, MA, USA). The optimal dilutions were determined, and ELISAs were performed according to the manufacturer’s instructions.
Figure 4 Levels of Bax, Bcl-2, Bax/Bcl-2 ratio, cytochrome c and caspase-7 protein in MCF-7 cells after treatment with compound 10 and the standard drug for 24 h compared with the untreated one, 5-flu: 5-fluorouracil as a reference drug.

Series [7] relates to MCF-7 cells. The series is described as follows: Apoptosis detection, Annexin V-FITC flow cytometry. The format is cell-based, human. On the procedure:
(§4) Cell cycle analysis and apoptosis detection were carried out by flow cytometry. MCF-7 cells were seeded at 1–5 × 10^4 and incubated at 37 °C, 5% CO2 overnight. After treatment with the tested compound 10, for 24 h, cell pellets were collected and centrifuged (300× g, 5 min). For cell cycle analysis, cell pellets were fixed with 70% ethanol on ice for 15 min and collected again [54]. The collected pellets were incubated with propidium iodide (PI) staining solution at room temperature for 1 h. Apoptosis detection was performed by Annexin V-FITC apoptosis detection kit (BioVision, Inc, Milpitas, CA, USA) following the manufacturer’s protocol. The samples were analyzed using FACS Calibur flow cytometer (BD Biosciences, San Jose, CA).
(§5) Figure 5 Cell cycle analysis and the effect of the target 10 on the percentage of V-FITC-positive annexin staining in MCF-7 cells in comparison with the control. TEXT PRINTED IN THE PICTURE: (C) cpd10: MCF7: 6.07%; MCF7: 18.11%; MCF7: 25.44% | (D) cpd10: MCF7: %DIP G1 41.96%; MCF7: %DIP G2/M 6.61%; MCF7: %DIP S 51.43%
A general note: Flow cytometry measures light scatter and fluorescence of single cells or particles in a stream.

Series [8] relates to MCF-7 cells. The series is described as follows: Cell cycle analysis, PI flow cytometry. The format is cell-based, human. On the procedure:
as §4, §5

Regarding `CCn1c(COc2ccc3c(-c4ccccc4)cc(=O)oc3c2)nnc1SC1OCC(O)C(O)C1O` [Compound 10, 4-Phenyl-7-((4-ethyl-5-(1-(β-D-xylopyranosyl)thio)-4H-1,2,4-triazol-3-yl)meth-oxy)-2H-chromen-2-one], the melting point lay in the range of 178 to 179 °C. This compound showed a cytotoxicity at 100 µM in [1] of 5.3 ± 0.2%. This compound also yielded a cytotoxicity at 100 µM in [2] of 20.6 ± 0.5%. This compound also registered a cytotoxicity at 100 µM in [3] (MCF7, 48 h) of 66.3 ± 1%. Also, in [3] (MCF7, MTT, 0.78–100 µM, ± SD), the IC50 came out at 19.6 ± 0.7 µM. In series [4], this compound gave a cytotoxicity at 100 µM of 0.7 ± 0.003%. For the same compound, the cytotoxicity at 100 µM in [5] came out at 27.2 ± 0.7%. The IC50 at CDK-2/cyclin A2 stood at 0.15 µM. The “Cytochrome c released into the cytosol” value in [6] turned out to be 0.766 ng/mL. In addition, the Secondary late apoptosis with MCF-7 cells [7] (MCF-7, 19.6 µM (IC50), 24 h, untreated 0.18) is recorded as 18.11%. This compound also displayed an Early apoptosis with MCF-7 cells [7] (MCF-7, 19.6 µM (IC50), 24 h, untreated 0.47) of 25.44%. The “Annexin V-FITC staining, third percentage not named in the picture text” value with MCF-7 cells [7] (MCF-7, Figure 5C) is on record as 6.07%. In the series with MCF-7 cells [8] (MCF-7, 19.6 µM (IC50), 24 h), the “Increase in the cell percentage at the S phase versus untreated” value was 1.7 fold. Besides, the “Cell percentage at the S phase” value in the series with MCF-7 cells [8] (MCF-7, 19.6 µM (IC50), 24 h, untreated 29.63%) was found to be 51.43%. In the series on MCF-7 cells [8] (MCF-7, Figure 5D), the “%DIP G1” value is recorded as 41.96% and the “%DIP G2/M” value is on record as 6.61%.
